Measured values as given in patent US12421229B2, “Hydropyrido[1,2-α]pyrazine compounds for the treatment of autoimmune disease” (Hoffmann-La Roche Inc., priority 2019, dated 2025).

How the values were obtained:
[1] = biological target: T1, human TLR7 (Homo sapiens, UniProt Q9NYK1); assay: HEK293-Blue-hTLR-7 cells assay; assay type: cell-based; conditions: HEK293-Blue-hTLR7 cells, R848 stimulation, 20 hrs, SEAP reporter; read-out: HEK/hTLR7 IC50
T1 construct: host or cells: HEK293 (HEK-Blue hTLR7)
T1 sequence (Q9NYK1 27-1049): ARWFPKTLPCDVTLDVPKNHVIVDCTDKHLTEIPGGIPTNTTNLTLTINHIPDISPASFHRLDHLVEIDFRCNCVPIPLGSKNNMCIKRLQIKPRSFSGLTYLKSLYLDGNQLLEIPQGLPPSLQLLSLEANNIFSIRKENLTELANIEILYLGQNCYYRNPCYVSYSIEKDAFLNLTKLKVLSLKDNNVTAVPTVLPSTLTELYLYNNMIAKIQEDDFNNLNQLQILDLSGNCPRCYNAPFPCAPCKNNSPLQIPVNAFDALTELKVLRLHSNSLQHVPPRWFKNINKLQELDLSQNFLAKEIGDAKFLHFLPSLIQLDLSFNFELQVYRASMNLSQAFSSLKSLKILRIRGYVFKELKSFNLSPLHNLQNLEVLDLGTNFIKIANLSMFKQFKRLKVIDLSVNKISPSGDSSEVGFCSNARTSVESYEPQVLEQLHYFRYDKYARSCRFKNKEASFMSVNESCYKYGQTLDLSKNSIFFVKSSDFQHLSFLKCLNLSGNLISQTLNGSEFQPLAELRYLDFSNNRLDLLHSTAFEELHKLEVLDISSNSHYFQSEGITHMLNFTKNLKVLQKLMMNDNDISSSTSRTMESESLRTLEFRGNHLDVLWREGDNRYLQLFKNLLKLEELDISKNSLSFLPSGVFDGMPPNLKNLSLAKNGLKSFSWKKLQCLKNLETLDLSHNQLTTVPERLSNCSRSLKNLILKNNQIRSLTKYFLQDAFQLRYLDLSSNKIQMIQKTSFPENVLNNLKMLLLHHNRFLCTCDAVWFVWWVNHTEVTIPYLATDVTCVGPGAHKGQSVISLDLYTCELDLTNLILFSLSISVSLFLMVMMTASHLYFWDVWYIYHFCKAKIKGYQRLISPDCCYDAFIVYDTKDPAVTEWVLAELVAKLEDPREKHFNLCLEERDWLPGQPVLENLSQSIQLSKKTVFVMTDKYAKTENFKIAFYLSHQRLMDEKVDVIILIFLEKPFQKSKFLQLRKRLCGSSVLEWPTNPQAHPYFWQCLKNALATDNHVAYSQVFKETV
Description: A stable HEK293-Blue-hTLR-7 cell line was purchased from InvivoGen (Cat. #: hkb-htlr7, San Diego, California, USA). These cells were originally designed for studying the stimulation of human TLR7 by monitoring the activation of NF-κB. A SEAP (secreted embryonic alkaline phosphatase) reporter gene was placed under the control of the IFN-β minimal promoter fused to five NF-κB and AP-1-binding sites. The SEAP was induced by activating NF-κB and AP-1 via stimulating HEK-Blue hTLR7 cells with TLR7 ligands. Therefore the reporter expression was declined by TLR7 antagonist under the stimulation of a ligand, such as R848 (Resiquimod), for incubation of 20 hrs. The cell culture supernatant SEAP reporter activity was determined using QUANTI-Blue™ kit (Cat. #: rep-qb1, Invivogen, San Diego, Ca, USA) at a wavelength of 640 nm, a detection medium that turns purple or blue in the presence of alkaline phosphatase.
HEK293-Blue-hTLR7 cells were incubated at a density of 250,000˜450,000 cells/mL in a volume of 170 μL in a 96-well plate in Dulbecco's Modified Eagle's medium (DMEM) containing 4.5 g/L glucose, 50 U/mL penicillin, […], […], 2 mM L-glutamine, 10% (v/v) heat-inactivated fetal bovine serum with addition of 20 μL test compound in a serial dilution in the presence of final DMSO at 1% and 10 μL of 20 uM R848 in above DMEM, perform incubation under 37° C. in a CO2 incubator for 20 hrs. Then 20 μL of the supernatant from each well was incubated with 180 μL Quanti-blue substrate solution at 37° C. for 2 hrs and the absorbance was read at 620˜655 nm using a spectrophotometer. The signaling pathway that TLR7 activation leads to downstream NF-κB activation has been widely accepted, and therefore similar reporter assay was modified for evaluating TLR7 antagonist.

[2] = biological target: T2, CYP2C9 (Homo sapiens, UniProt P11712); assay: CYP inhibition assay in human liver microsome, CYP2C9; assay type: in vitro ADME; conditions: percentage inhibition, substrate Diclofenac 5 μM
T2 construct: tissue BD-Gentest 452117; host or cells: human liver microsomes
T2 sequence (P11712 whole entry): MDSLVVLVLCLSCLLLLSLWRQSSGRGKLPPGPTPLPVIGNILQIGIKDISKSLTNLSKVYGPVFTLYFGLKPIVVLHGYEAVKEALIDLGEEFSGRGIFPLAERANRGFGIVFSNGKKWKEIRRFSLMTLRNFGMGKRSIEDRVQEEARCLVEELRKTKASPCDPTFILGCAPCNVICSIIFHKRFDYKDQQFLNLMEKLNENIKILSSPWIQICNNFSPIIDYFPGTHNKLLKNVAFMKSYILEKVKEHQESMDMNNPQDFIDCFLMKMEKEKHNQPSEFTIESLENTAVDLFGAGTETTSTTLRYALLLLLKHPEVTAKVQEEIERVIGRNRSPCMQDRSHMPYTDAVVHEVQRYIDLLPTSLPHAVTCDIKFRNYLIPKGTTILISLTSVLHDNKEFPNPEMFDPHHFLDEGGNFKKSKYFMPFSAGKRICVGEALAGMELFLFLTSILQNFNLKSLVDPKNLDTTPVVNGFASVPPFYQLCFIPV
Description: (§1) This is a high throughput screening assay used for assessment of reversible inhibition of CYP2C9, CYP2D6, and CYP3A4 activity of test compounds in human liver microsome (HLM) in early discovery stage.
(§2) 10 mM DMSO stock solutions of test compounds were diluted in DMSO to generate 2 mM intermediate stock solution. 250 nL of intermediate stock solution were transferred in duplicate into 3 separate 384 well microtitre plates (assay-ready plates). A mixture of HLM and each substrate was made up. 45 μL of HLM substrate mix was then transferred to each well of an assay ready plate and mixed. The negative (solvent) and positive controls (standard inhibitor for each CYP) were included in each assay ready plate. The assay ready plate was warmed to 37° C. in an incubator over 10 minutes. 5 μL pre-warmed NADPH regenerating system was added to each incubation well to start the reaction. Final incubation volume was 50 μL. The assay plate then was placed back in the 37° C. incubator. After incubation (10 minutes for CYP2D6) for 5 minutes, incubates were quenched by addition of 50 μL 100% acetonitrile containing internal standards (400 ng/mL 13C6-4′-OH-Diclofenac, 20 ng/mL D3-Dextrorphan and 20 ng/mL D4-1′OH-Midazolam). The supernatants were collected for RapidFire/MS/MS analysis.
(§3) RapidFire online solid phase extraction/sample injection system (Agilent) coupled with API4000 triple quadrupole mass spectrometer (AB Sciex) were used for sample analysis. The mobile phase composed of acetonitrile and water supplemented with 0.1% formic acid. A C4 solid phase extraction cartridge is used for sample separation. MS detection is achieved in positive ion MRM mode.
(§4) Peak areas for substrate, metabolite and internal standard are determined using the RapidFire integrator software (version 3.6.12009.12296). Peak area ratios (PAR) of metabolite and internal standard (stable-labelled metabolite) are then calculated. The measurement window for each experiment is then defined:
(§5) PAR (0% activity)=average PAR for all incubations containing concentrated inhibitor;
(§6) Par (100% activity)=average PAR for all incubations containing no inhibitor (DMSO controls);
(§7) % Activity (test inhibitor)=[PAR(test inhibitor)−PAR(0% activity)/PAR(100% activity)−PAR(0% activity)];
(§8) % Inhibition (test inhibitor)=100−% Activity (test inhibitor).

[3] = biological target: T3, CYP2D6 (Homo sapiens, UniProt P10635); assay: CYP inhibition assay in human liver microsome, CYP2D6; assay type: in vitro ADME; conditions: percentage inhibition, substrate Dextromethorphan 5 μM
T3 construct: tissue BD-Gentest 452117; host or cells: human liver microsomes
T3 sequence (P10635 whole entry): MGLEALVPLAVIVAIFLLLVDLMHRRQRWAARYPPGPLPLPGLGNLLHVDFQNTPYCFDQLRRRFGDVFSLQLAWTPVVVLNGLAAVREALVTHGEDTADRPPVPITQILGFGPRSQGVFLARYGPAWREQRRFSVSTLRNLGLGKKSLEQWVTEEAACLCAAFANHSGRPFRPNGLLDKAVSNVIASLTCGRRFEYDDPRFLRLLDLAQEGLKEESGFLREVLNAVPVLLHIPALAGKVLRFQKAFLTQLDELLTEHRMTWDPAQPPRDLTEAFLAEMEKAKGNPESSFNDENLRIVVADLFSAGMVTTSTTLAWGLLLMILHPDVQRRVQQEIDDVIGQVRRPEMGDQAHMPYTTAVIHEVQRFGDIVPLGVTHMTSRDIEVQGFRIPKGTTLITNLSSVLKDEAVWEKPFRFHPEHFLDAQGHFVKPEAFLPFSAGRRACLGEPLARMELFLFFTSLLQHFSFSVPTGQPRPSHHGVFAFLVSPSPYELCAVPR
Description: as §1, §2, §3, §4, §5, §6, §7, §8

Structure (SMILES)	IC50 [1] [nM]	CYP (%) 2C9 [2] [%]	CYP (%) 2D6 [3] [%]
CO[C@@H]1CN(c2ccc([C@@H]3CCN4[C@@H](C3)CN(c3ccc(C#N)c5ncccc35)C[C@H]4C)cn2)C[C@H]1N [Example 14, 5-[(4R,8R,9aS)-8-[6-[(3R,4R)-3-amino-4-methoxy-pyrrolidin-1-yl]-3-pyridyl]-4-methyl-1,3,4,6,7,8,9,9a-octahydropyrido[1,2-a]pyrazin-2-yl]quinoline-8-carbonitrile]	23	−1	−0.5
[2H]c1ccc2c(N3C[C@@H]4C[C@H](N5CCN(c6ccncc6)CC5)CCN4[C@H](C)C3)ccc(C#N)c2n1 [Example 37, 5-[(4R,8R,9aS)-4-methyl-8-[4-(4-pyridyl)piperazin-1-yl]-1,3,4,6,7,8,9,9a-octahydropyrido[1,2-a]pyrazin-2-yl]-2-deuterio-quinoline-8-carbonitrile]	11	4.5	14.5
CO[C@H]1CN(c2ccc([C@@H]3CCN4[C@@H](C3)CN(c3ccc(C#N)c5ncccc35)C[C@H]4C)cn2)C[C@@H]1N [Example 6, 5-[(4R,8R,9aS)-8-[6-[(3S,4S)-3-amino-4-methoxy-pyrrolidin-1-yl]-3-pyridyl]-4-methyl-1,3,4,6,7,8,9,9a-octahydropyrido[1,2-a]pyrazin-2-yl]quinoline-8-carbonitrile]	41	−8	−12.5
C[C@@H]1CN(c2ccc(C#N)c3ncccc23)C[C@@H]2C[C@H](N3CC(c4ccc(N5CCNCC5)cc4)C3)CCN21 [Example 9, 5-[(4R,8R,9aS)-4-methyl-8-[3-(4-piperazin-1-ylphenyl)azetidin-1-yl]-1,3,4,6,7,8,9,9a-octahydropyrido[1,2-a]pyrazin-2-yl]quinoline-8-carbonitrile]	27	−6.5	−2
C[C@@H]1CN(c2ccc(C#N)c3ncccc23)C[C@@H]2C[C@H](NCc3ccc(N4CCNCC4)cc3)CCN21 [Example 1, 5-[(4R,8R,9aS)-4-methyl-8-[(4-piperazin-1-ylphenyl)methylamino]-1,3,4,6,7,8,9,9a-octahydropyrido[1,2-a]pyrazin-2-yl]quinoline-8-carbonitrile]	33		
C[C@@H]1CN(c2ccc(C#N)c3ncccc23)C[C@@H]2C[C@@H](Oc3ccc(N4CCNCC4)cn3)CCN21 [Example 11, 5-[(4R,8S,9aS)-4-methyl-8-[(5-piperazin-1-yl-2-pyridyl)oxy]-1,3,4,6,7,8,9,9a-octahydropyrido[1,2-a]pyrazin-2-yl]quinoline-8-carbonitrile]	46	0	−24.5

More lines, now with the values ahead:

IC50 [1] [nM]	CYP (%) 2C9 [2] [%]	CYP (%) 2D6 [3] [%]	Structure (SMILES)
17	14.5	0	CO[C@H]1CN(c2ccc([C@@H]3CCN4[C@@H](C3)CN(c3ccc(C#N)c5ncccc35)C[C@H]4C)cn2)C[C@H]1N [Example 12, 5-[(4R,8R,9aS)-8-[6-[(3R,4S)-3-amino-4-methoxy-pyrrolidin-1-yl]-3-pyridyl]-4-methyl-1,3,4,6,7,8,9,9a-octahydropyrido[1,2-a]pyrazin-2-yl]quinoline-8-carbonitrile]
4	6	−5.5	C[C@@H]1CN(c2ccc(C#N)c3ncccc23)C[C@@H]2C[C@H](c3ccc(N4CCNCC4)nc3)CCN21 (stereo in doubt) [Example 2, 5-[(4R,8R)-4-methyl-8-(6-piperazin-1-yl-3-pyridyl)-1,3,4,6,7,8,9,9a-octahydropyrido[1,2-a]pyrazin-2-yl]quinoline-8-carbonitrile]
4	4	8	C[C@@H]1CN(c2ccc(C#N)c3ncccc23)C[C@@H]2C[C@H](c3ccc([C@@H]4CNCCO4)cc3)CCN21 [Example 27, 5-[(4R,8R,9aS)-4-methyl-8-[4-[(2R)-morpholin-2-yl]phenyl]-1,3,4,6,7,8,9,9a-octahydropyrido[1,2-a]pyrazin-2-yl]quinoline-8-carbonitrile]
47	−20	2.5	[2H]c1ccc2c(N3C[C@@H]4C[C@H](Nc5ccc(C[C@H]6CNCCO6)cc5)CCN4[C@H](C)C3)ccc(C#N)c2n1 [Example 34, 5-[(4R,8R,9aS)-4-methyl-8-[4-[[(2S)-morpholin-2-yl]methyl]anilino]-1,3,4,6,7,8,9,9a-octahydropyrido[1,2-a]pyrazin-2-yl]-2-deuterio-quinoline-8-carbonitrile]
15	−3.5	−6	C[C@@H]1CN(c2ccc(C#N)c3ncccc23)C[C@@H]2C[C@H](c3ccc(N4C[C@@H](N)[C@@H](F)C4)nc3)CCN21 [Example 19, 5-[(4R,8R,9aS)-8-[6-[(3R,4S)-3-amino-4-fluoro-pyrrolidin-1-yl]-3-pyridyl]-4-methyl-1,3,4,6,7,8,9,9a-octahydropyrido[1,2-a]pyrazin-2-yl]quinoline-8-carbonitrile]
